Experimental data: PubChem BioAssay AID248 (DTP/NCI, 2004)
“And” between values parts separate entries of the source, which are not always exact repeats. Equal entries are not always repeated. Inconclusive results and toxic doses are left out.

System: L1210 leukemia ip in BDF1 mice, survival T/C
Test: NCI In Vivo Anticancer Drug Screen. Data for tumor model L1210 Leukemia (intraperitoneal) in B6D2F1 (BDF1) mice
Settings: endpoint: mean survival time, higher = longer survival
Summary of the method: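 Mice bearing the transplanted tumor received compound or vehicle. Survival of the treated group was divided by that of the vehicle-treated control group to give the ratio.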

[1] = dose: 100.0 mg/kg/injection, schedule: Q01DX009 (ip), vehicle: Klucel (hydroxypropylcellulose) (HPC)
[2] = dose: 200.0 mg/kg/injection, schedule: Q01DX009 (ip), vehicle: Klucel (hydroxypropylcellulose) (HPC)
[3] = dose: 400.0 mg/kg/injection, schedule: Q01DX009 (ip), vehicle: Klucel (hydroxypropylcellulose) (HPC)
[4] = dose: 100.0 mg/kg/injection, schedule: Q04DX002 (ip), vehicle: Klucel (hydroxypropylcellulose) (HPC)
[5] = dose: 200.0 mg/kg/injection, schedule: Q04DX002 (ip), vehicle: Klucel (hydroxypropylcellulose) (HPC)
[6] = dose: 400.0 mg/kg/injection, schedule: Q04DX002 (ip), vehicle: Klucel (hydroxypropylcellulose) (HPC)
[7] = dose: 100.0 mg/kg/injection, schedule: Q04DX003 (ip), vehicle: saline with Tween-80
[8] = dose: 100.0 mg/kg/injection, schedule: Q04DX003 (ip), vehicle: water
[9] = dose: 200.0 mg/kg/injection, schedule: Q04DX003 (ip), vehicle: water
[10] = dose: 25.0 mg/kg/injection, schedule: Q04DX003 (ip), vehicle: Klucel (hydroxypropylcellulose) (HPC)
[11] = dose: 50.0 mg/kg/injection, schedule: Q04DX003 (ip), vehicle: Klucel (hydroxypropylcellulose) (HPC)
[12] = dose: 100.0 mg/kg/injection, schedule: Q04DX003 (ip), vehicle: Klucel (hydroxypropylcellulose) (HPC)
[13] = dose: 200.0 mg/kg/injection, schedule: Q04DX003 (ip), vehicle: Klucel (hydroxypropylcellulose) (HPC)
[14] = dose: 400.0 mg/kg/injection, schedule: Q04DX003 (ip), vehicle: Klucel (hydroxypropylcellulose) (HPC)
[15] = dose: 200.0 mg/kg/injection, schedule: Q04DX003 (ip), vehicle: saline with Tween-80
[16] = dose: 100.0 mg/kg/injection, schedule: Q01DX009 (ip), vehicle: saline with Tween-80
[17] = dose: 200.0 mg/kg/injection, schedule: Q01DX009 (ip), vehicle: saline with Tween-80
[18] = dose: 400.0 mg/kg/injection, schedule: Q01DX009 (ip), vehicle: saline with Tween-80

## Cc1ccc(NC(=O)Oc2cc(C)ccc2C(C)C)cc1
[1]
  T/C: 113 % of control
[2]
  T/C: 94 % of control
[3]
  T/C: 97 % of control

## CC(C)Sc1ncnc2nc[nH]c12
dose: 2.5 mg/kg/injection, schedule: Q01DX009 (sc), vehicle: steriod suspending solution
  T/C: 97 % of control
dose: 5.0 mg/kg/injection, schedule: Q01DX009 (sc), vehicle: steriod suspending solution
  T/C: 100 % of control
dose: 10.0 mg/kg/injection, schedule: Q01DX009 (sc), vehicle: steriod suspending solution
  T/C: 96 % of control
dose: 18.0 mg/kg/injection, schedule: Q01DX009 (ip), vehicle: saline with Tween-80
  T/C: 102 % of control
dose: 27.0 mg/kg/injection, schedule: Q01DX009 (ip), vehicle: saline with Tween-80
  T/C: 104 % of control
dose: 40.0 mg/kg/injection, schedule: Q01DX009 (ip), vehicle: saline with Tween-80
  T/C: 110 % of control
dose: 60.0 mg/kg/injection, schedule: Q01DX009 (ip), vehicle: saline with Tween-80
  T/C: 109 % of control
dose: 75.0 mg/kg/injection, schedule: Q01DX001 (sc), vehicle: steriod suspending solution
  T/C: 103 % of control
dose: 75.0 mg/kg/injection, schedule: Q01DX009 (sc), vehicle: steriod suspending solution
  T/C: 166 % of control
dose: 150.0 mg/kg/injection, schedule: Q01DX009 (sc), vehicle: steriod suspending solution
  T/C: 160 % of control

## CCCCCCCCCCCCCCCCCC(=O)OC(C(O)C=O)C(O)C(O)CO (centres undefined)
[4]
  T/C: 95 % of control
[5]
  T/C: 109 % of control
[6]
  T/C: 95 % of control

## C=CCNC(=O)/C=C/C(=O)NCC=C
dose: 25.0 mg/kg/injection, schedule: Q04DX003 (ip), vehicle: saline with Tween-80
  T/C: 97 % of control
dose: 50.0 mg/kg/injection, schedule: Q04DX003 (ip), vehicle: saline with Tween-80
  T/C: 97 % of control
[7]
  T/C: 89 % of control

## O=[N+]([O-])c1ccc(NCc2ccccc2)c2c1no[n+]2[O-]
dose: 37.5 mg/kg/injection, schedule: Q04DX003 (ip), vehicle: saline with Tween-80
  T/C: 100 % of control
dose: 75.0 mg/kg/injection, schedule: Q04DX003 (ip), vehicle: saline with Tween-80
  T/C: 106 % of control
dose: 150.0 mg/kg/injection, schedule: Q04DX003 (ip), vehicle: saline with Tween-80
  T/C: 100 % of control

## O=C(O)COc1c(Cl)cc(Cl)cc1Cl
[4]
  T/C: 100 % of control
[5]
  T/C: 100 % of control
[6]
  T/C: 96 % of control

## CC(C)CN=C(N)N=C(N)N
dose: 50.0 mg/kg/injection, schedule: Q01DX009 (ip), vehicle: water
  T/C: 95 % of control
dose: 50.0 mg/kg/injection, schedule: Q04DX003 (ip), vehicle: water
  T/C: 102 % of control
dose: 100.0 mg/kg/injection, schedule: Q01DX001 (ip), vehicle: water
  T/C: 96 % of control
dose: 100.0 mg/kg/injection, schedule: Q01DX009 (ip), vehicle: water
  T/C: 97 % of control
[8]
  T/C: 104 % of control
dose: 200.0 mg/kg/injection, schedule: Q01DX001 (ip), vehicle: water
  T/C: 103 % of control
[9]
  T/C: 107 % of control

## O=C(Sc1c[nH]c(=O)[nH]c1=O)c1ccc(N(CCCl)CCCl)cc1
[10]
  T/C: 96 % of control
[11]
  T/C: 102 % of control
[12]
  T/C: 94 % of control
[13]
  T/C: 100 % of control
[14]
  T/C: 105 % of control

## COc1cc([N+](=O)[O-])ccc1NC(=O)C(Br)C(Br)C(=O)O (centres undefined)
dose: 100.0 mg/kg/injection, schedule: Q01DX009 (ip), vehicle: other
  T/C: 94 % of control

## CC(C)=CCn1c(=O)c2c(ncn2C)n(C)c1=O
[7]
  T/C: 98 % of control
[15]
  T/C: 98 % of control

## CCNCc1cc(Nc2cc(C)nc(/N=C(\N)Nc3ccc(Cl)c(Cl)c3)n2)ccc1OC
dose: 3.12 mg/kg/injection, schedule: Q01DX009 (ip), vehicle: Klucel (hydroxypropylcellulose) (HPC)
  T/C: 94 % of control
dose: 6.25 mg/kg/injection, schedule: Q01DX009 (ip), vehicle: Klucel (hydroxypropylcellulose) (HPC)
  T/C: 103 % of control
dose: 12.5 mg/kg/injection, schedule: Q01DX009 (ip), vehicle: Klucel (hydroxypropylcellulose) (HPC)
  T/C: 97 % of control
[10]
  T/C: 101 % of control
[11]
  T/C: 111 % of control
dose: 75.0 mg/kg/injection, schedule: Q01DX001 (ip), vehicle: other
  T/C: 97 % of control
[12]
  T/C: 95 % of control

## CC(/C=N/O)=C1C=CC=C1
dose: 100.0 mg/kg/injection, schedule: Q01DX001 (ip), vehicle: Klucel (hydroxypropylcellulose) (HPC)
  T/C: 94 % of control
[1]
  T/C: 98 % of control
[12]
  T/C: 102 % of control
dose: 200.0 mg/kg/injection, schedule: Q01DX001 (ip), vehicle: Klucel (hydroxypropylcellulose) (HPC)
  T/C: 92 % of control
[2]
  T/C: 100 % of control
[13]
  T/C: 98 % of control
dose: 400.0 mg/kg/injection, schedule: Q01DX001 (ip), vehicle: Klucel (hydroxypropylcellulose) (HPC)
  T/C: 97 % of control
[3]
  T/C: 105 % of control
[14]
  T/C: 102 % of control

## O=C(O)CC(c1ccccc1)C(Nc1ccc2ccccc2c1)C(=O)O (centres undefined)
[4]
  T/C: 89 % of control
[5]
  T/C: 100 % of control
[6]
  T/C: 96 % of control

## CCN(CC)c1ccc(N=C2C=C(C(=O)Nc3ccc(C(=O)O)cc3)C(=O)c3ccccc32)c(C)c1
dose: 100.0 mg/kg/injection, schedule: Q01DX001 (ip), vehicle: saline
  T/C: 102 % of control
dose: 200.0 mg/kg/injection, schedule: Q01DX001 (ip), vehicle: saline
  T/C: 100 % of control
dose: 400.0 mg/kg/injection, schedule: Q01DX001 (ip), vehicle: saline
  T/C: 102 % of control

## O=C1c2ccccc2CCC12OC2c1ccc(F)cc1 (centres undefined)
[12]
  T/C: 97 % of control
[13]
  T/C: 97 % of control
[14]
  T/C: 103 % of control

## COC(=O)c1c2c(nc3ccccc13)-c1ccccc1C(C)(C)C2Br (centres undefined)
[12]
  T/C: 95 % of control
[13]
  T/C: 92 % of control
[14]
  T/C: 95 % of control

## OC1OC(COC(c2ccccc2)(c2ccccc2)c2ccccc2)C(O)C(O)C1O (centres undefined)
dose: 50.0 mg/kg/injection, schedule: Q01DX009 (ip), vehicle: saline
  T/C: 95 % of control
[16]
  T/C: 100 % of control and 102 % of control
dose: 100.0 mg/kg/injection, schedule: Q01DX009 (ip), vehicle: saline
  T/C: 98 % of control
[7]
  T/C: 102 % of control
dose: 100.0 mg/kg/injection, schedule: Q04DX003 (ip), vehicle: saline
  T/C: 102 % of control
[8]
  T/C: 105 % of control
[17]
  T/C: 95 % of control and 96 % of control
dose: 200.0 mg/kg/injection, schedule: Q01DX009 (ip), vehicle: saline
  T/C: 95 % of control
[15]
  T/C: 96 % of control
dose: 200.0 mg/kg/injection, schedule: Q04DX003 (ip), vehicle: saline
  T/C: 93 % of control
[9]
  T/C: 97 % of control
[18]
  T/C: 104 % of control
dose: 400.0 mg/kg/injection, schedule: Q04DX003 (ip), vehicle: saline with Tween-80
  T/C: 94 % of control
dose: 400.0 mg/kg/injection, schedule: Q04DX003 (ip), vehicle: water
  T/C: 96 % of control

## CC(=O)Nc1ccc(C(C)(C)CC(=O)O)cc1[N+](=O)[O-]
dose: 50.0 mg/kg/injection, schedule: Q01DX009 (ip), vehicle: saline with Tween-80
  T/C: 90 % of control
[16]
  T/C: 87 % of control
[17]
  T/C: 87 % of control

## Cc1ccc(S(=O)(=O)N(C)c2ccc(N)cc2)cc1
dose: 100.0 mg/kg/injection, schedule: Q01DX001 (ip), vehicle: carboxymethylcellulose (CMC)
  T/C: 102 % of control
dose: 200.0 mg/kg/injection, schedule: Q01DX001 (ip), vehicle: carboxymethylcellulose (CMC)
  T/C: 96 % of control
dose: 400.0 mg/kg/injection, schedule: Q01DX001 (ip), vehicle: carboxymethylcellulose (CMC)
  T/C: 91 % of control

## O=C(O)C1CCC=CC1c1ccccc1 (centres undefined)
dose: 100.0 mg/kg/injection, schedule: Q01DX005 (ip), vehicle: saline with Tween-80
  T/C: 101 % of control
[16]
  T/C: 96 % of control
dose: 200.0 mg/kg/injection, schedule: Q01DX005 (ip), vehicle: saline with Tween-80
  T/C: 101 % of control
[17]
  T/C: 110 % of control
dose: 400.0 mg/kg/injection, schedule: Q01DX005 (ip), vehicle: saline with Tween-80
  T/C: 116 % of control
[18]
  T/C: 110 % of control
